Laboratory results as given in US12612412B2, “Antiviral heterocyclic compounds” (Enanta Pharmaceuticals, Inc., priority 2021, dated 2026).

Columns and labels:
[1] = tested on: genotype A, "Long" strain RSV; assay: RSV-A assay (CPE protection in Hep-2 cells, ATPlite readout); type: cell-based, Human respiratory syncytial virus (HRSV); conditions: human respiratory syncytial virus, RSV-A Long strain, MOI 0.1, CPE protection, read-out: Human RSV-A (“Long”) EC50
How it was run: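 Hep-2 cells (8,000/well) were treated with 2-fold serial compound dilutions in duplicate and infected with RSV at MOI 0.1. After 5 days, protection from cytopathic effect was measured as cell viability by ATPlite luminescence, and EC50 values were derived.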

[2] = tested on: HMPV clinical isolate TN/1501/A1; assay: HMPV antiviral assay Method-B (clinical isolate TN/1501/A1 in LLC-MK2 cells, ATP-Lite readout); type: cell-based, Human metapneumovirus (HMPV); conditions: human metapneumovirus, LLC-MK2, 144 h, hMPV WT1501 (clinical isolate TN/1501/A1), 6 days
How it was run: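 LLC-MK2 cells infected in suspension with TN/1501/A1 at MOI 0.014 in serum-free medium with 2 μg/mL TPCK-trypsin (final), incubated 6 days at 37° C. Compounds tested in duplicate, 10-point 3-fold dilutions from 10 μM. Cell health read by ATP-Lite luminescence, normalised to virus-only and cells-only controls; EC50 by four-parameter logistic fit.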

Compound | EC50 [1] [nM] | EC50 [2] [nM]
COc1cc(C(=O)NC[C@](O)(c2cc3c(c(-c4ccc(F)c(Cl)c4)n2)OC[C@]3(C(N)=O)C(F)F)C(F)(F)F)cc2sc(C)nc12 [Example 1018] | > 200 | > 500
COc1cc(C(=O)NC[C@](O)(c2cc3c(c(-c4ccc(F)c(Cl)c4)n2)OC[C@@]3(C(N)=O)C(F)F)C(F)(F)F)cc2sc(C)nc12 [Example 1019] | < 200 | < 500
Cc1cnc2c(OC(F)F)cc(C(=O)NC[C@](O)(c3cc4c(c(-c5ccc6c(c5)OC(F)(F)O6)n3)OC[C@]4(C(N)=O)C(F)F)C3CC3)cc2c1 [Example 1020] | > 200 | > 500
Cc1cnc2c(OC(F)F)cc(C(=O)NC[C@](O)(c3cc4c(c(-c5ccc6c(c5)OC(F)(F)O6)n3)OC[C@@]4(C(N)=O)C(F)F)C3CC3)cc2c1 [Example 1021] | < 200 | < 500
COc1cc(C(=O)NC[C@](O)(c2cc3c(c(-c4ccc(F)cc4)n2)OC[C@]3(C(N)=O)C(F)F)C2CC2)cc2cn(C3CC3)nc12 [Example 1022] | > 200 | > 500
COc1cc(C(=O)NC[C@](O)(c2cc3c(c(-c4ccc(F)cc4)n2)OC[C@@]3(C(N)=O)C(F)F)C2CC2)cc2cn(C3CC3)nc12 [Example 1023] | < 200 | < 500
COc1cc(C(=O)NC[C@](O)(c2cc3c(c(-c4ccc(F)c(Cl)c4)n2)OC[C@]3(C(N)=O)C(F)F)C2CC2)cc2cn(C3CC3)nc12 [Example 1024] | > 200 | > 500
COc1cc(C(=O)NC[C@](O)(c2cc3c(c(-c4ccc(F)c(Cl)c4)n2)OC[C@@]3(C(N)=O)C(F)F)C2CC2)cc2cn(C3CC3)nc12 [Example 1025] | < 200 | < 500
Cc1cnc2c(OC(F)F)cc(C(=O)NC[C@](O)(c3cc4c(c(-c5ccc(F)cc5)n3)OC[C@]4(C(N)=O)C(F)F)C3CC3)cc2c1 [Example 1026] | > 200 | > 500
Cc1cnc2c(OC(F)F)cc(C(=O)NC[C@](O)(c3cc4c(c(-c5ccc(F)cc5)n3)OC[C@@]4(C(N)=O)C(F)F)C3CC3)cc2c1 [Example 1027] | < 200 | < 500
Cc1cnc2c(OC(F)F)cc(C(=O)NC[C@](O)(c3cc4c(c(-c5ccc(F)c(Cl)c5)n3)OC[C@]4(C(N)=O)C(F)F)C3CC3)cc2c1 [Example 1028] | > 200 | > 500
Cc1cnc2c(OC(F)F)cc(C(=O)NC[C@](O)(c3cc4c(c(-c5ccc(F)c(Cl)c5)n3)OC[C@@]4(C(N)=O)C(F)F)C3CC3)cc2c1 [Example 1029] | < 200 | < 500
COc1cc(C(=O)NC[C@](O)(c2cc3c(c(-c4ccc(F)cc4)n2)OC[C@]3(C(N)=O)C(F)F)C2CC2)cc2cc(Cl)c(C)nc12 [Example 1030] | < 200 | > 500
COc1cc(C(=O)NC[C@](O)(c2cc3c(c(-c4ccc(F)cc4)n2)OC[C@@]3(C(N)=O)C(F)F)C2CC2)cc2cc(Cl)c(C)nc12 [Example 1031] | < 200 | < 500
COc1cc(C(=O)NC[C@](O)(c2cc3c(c(-c4ccc(F)c(Cl)c4)n2)OC[C@]3(C(N)=O)C(F)F)C2CC2)cc2cc(Cl)c(C)nc12 [Example 1032] | > 200 | > 500
COc1cc(C(=O)NC[C@](O)(c2cc3c(c(-c4ccc(F)c(Cl)c4)n2)OC[C@@]3(C(N)=O)C(F)F)C2CC2)cc2cc(Cl)c(C)nc12 [Example 1033] | < 200 | < 500
COc1cc(C(=O)NC[C@](O)(c2cc3c(c(-c4ccc5c(c4)OC(F)(F)O5)n2)OC[C@]3(C(N)=O)C(F)F)C(F)(F)F)cc2cn(C3CC3)nc12 [Example 1034] | > 200 | > 500
COc1cc(C(=O)NC[C@](O)(c2cc3c(c(-c4ccc5c(c4)OC(F)(F)O5)n2)OC[C@@]3(C(N)=O)C(F)F)C(F)(F)F)cc2cn(C3CC3)nc12 [Example 1035] | < 200 | < 500
COc1cc(C(=O)NC[C@](O)(c2cc3c(c(-c4ccc5c(c4)OC(F)(F)O5)n2)OC[C@]3(C(N)=O)C(F)F)C(F)(F)F)cc2cc(Cl)c(C)nc12 [Example 1036] | > 200 | > 500
COc1cc(C(=O)NC[C@](O)(c2cc3c(c(-c4ccc5c(c4)OC(F)(F)O5)n2)OC[C@@]3(C(N)=O)C(F)F)C(F)(F)F)cc2cc(Cl)c(C)nc12 [Example 1037] | < 200 | < 500
COc1cc(C(=O)NC[C@](O)(c2cc3c(c(-c4ccc(F)c(F)c4F)n2)OC[C@]3(C(N)=O)C(F)F)C(F)(F)F)cc2cn(C3CC3)nc12 [Example 1038] | > 200 | > 500
COc1cc(C(=O)NC[C@](O)(c2cc3c(c(-c4ccc(F)c(F)c4F)n2)OC[C@@]3(C(N)=O)C(F)F)C(F)(F)F)cc2cn(C3CC3)nc12 [Example 1039] | < 200 | < 500

Compound | EC50 [1] [nM] | EC50 [2] [nM]
COc1cc(C(=O)NC[C@](O)(c2cc3c(c(-c4ccc(F)c(F)c4F)n2)OC[C@]3(C(N)=O)C(F)F)C(F)(F)F)cc2cc(Cl)c(C)nc12 [Example 1040] | < 200 | > 500
COc1cc(C(=O)NC[C@](O)(c2cc3c(c(-c4ccc(F)c(F)c4F)n2)OC[C@@]3(C(N)=O)C(F)F)C(F)(F)F)cc2cc(Cl)c(C)nc12 [Example 1041] | < 200 | < 500
COc1cc(C(=O)NC[C@](O)(c2cc3c(c(-c4ccc5c(c4)OC(F)(F)O5)n2)OC[C@@]3(C(N)=O)C(F)F)C2CC2)cc2cn(C3(F)CC3)nc12 [Example 1042] | < 200 | < 500
Cc1cnc2c(OC(F)F)cc(C(=O)NC[C@](O)(c3cc4c(c(-c5ccc6c(c5)OC(F)(F)O6)n3)OC[C@@]4(C(N)=O)C(F)F)C(F)(F)F)cc2c1 [Example 1043] | < 200 | < 500
COc1cc(C(=O)NC[C@](O)(c2cc3c(c(-c4ccc5c(c4)OC(F)(F)O5)n2)OC[C@@]3(C(N)=O)C(F)F)C2CC2)cc2cn(C(F)F)nc12 [Example 1044] | < 200 | < 500
COc1cc(C(=O)NC[C@](O)(c2cc3c(c(-c4ccc(F)c(Cl)c4)n2)OC[C@@]3(C(N)=O)C(F)F)C2CC2)cc2cn(C(F)F)nc12 [Example 1045] | < 200 | < 500
COc1cc(C(=O)NC[C@](O)(c2cc3c(c(-c4ccc(F)c(Cl)c4)n2)OC[C@@]3(CF)C(N)=O)C(F)(F)F)cc2cc(Cl)c(C)nc12 [Example 1046] | > 200 | > 500
COc1cc(C(=O)NC[C@](O)(c2cc3c(c(-c4ccc(F)c(Cl)c4)n2)OC[C@]3(CF)C(N)=O)C(F)(F)F)cc2cc(Cl)c(C)nc12 [Example 1047] | < 200 | < 500
COc1cc(C(=O)NC[C@](O)(c2cc3c(c(-c4ccc(F)c(Cl)c4)n2)OC[C@]3(CF)C(N)=O)C(F)(F)F)ccc1OC1CC1 [Example 1049] | < 200 | < 500
COc1cc(C(=O)NC[C@](O)(c2cc3c(c(-c4ccc(F)c(Cl)c4)n2)OCC3(CF)C(N)=O)C(F)(F)F)cc2cn(C3CC3)nc12 (stereo partly shown) [Example 1050] | < 200 | < 500
COc1cc(C(=O)NC[C@](O)(c2cc3c(c(-c4ccc(F)c(Cl)c4)n2)OC[C@@]3(CF)C(N)=O)C(F)(F)F)cc2cn(C3CC3)nc12 [Example 1051] | < 200 | > 500
COc1cc(C(=O)NC[C@](O)(c2cc3c(c(-c4ccc(F)c(Cl)c4)n2)OC[C@]3(CF)C(N)=O)C(F)(F)F)cc2cn(C3CC3)nc12 [Example 1052] | < 200 | < 500
NC(=O)[C@]1(CF)COc2c1cc([C@@](O)(CNC(=O)c1cc(OC3CC3)c3ncccc3c1)C1CC1)nc2-c1ccc(F)cc1 [Example 1053] | > 200 | > 500
NC(=O)[C@@]1(CF)COc2c1cc([C@@](O)(CNC(=O)c1cc(OC3CC3)c3ncccc3c1)C1CC1)nc2-c1ccc(F)cc1 [Example 1054] | < 200 | > 500
COc1cc(C(=O)NC[C@](O)(c2cc3c(c(-c4ccc(F)cc4)n2)OC[C@@]3(CF)C(N)=O)C2CC2)cc2cc(Cl)c(C)nc12 [Example 1055] | > 200 | > 500
COc1cc(C(=O)NC[C@](O)(c2cc3c(c(-c4ccc(F)cc4)n2)OC[C@]3(CF)C(N)=O)C2CC2)cc2cc(Cl)c(C)nc12 [Example 1056] | < 200 | < 500
Cc1cnc2c(OC(F)F)cc(C(=O)NC[C@](O)(c3cc4c(c(-c5ccc(F)cc5)n3)OC[C@@]4(CF)C(N)=O)C3CC3)cc2c1 [Example 1057] | > 200 | > 500
Cc1cnc2c(OC(F)F)cc(C(=O)NC[C@](O)(c3cc4c(c(-c5ccc(F)cc5)n3)OC[C@]4(CF)C(N)=O)C3CC3)cc2c1 [Example 1058] | < 200 | < 500
COc1cc(C(=O)NC[C@](O)(c2cc3c(c(-c4ccc(F)cc4)n2)OC[C@@]3(CF)C(N)=O)C2CC2)cc2cc(C3CC3)nn12 [Example 1059] | > 200 | > 500
COc1cc(C(=O)NC[C@](O)(c2cc3c(c(-c4ccc(F)cc4)n2)OC[C@]3(CF)C(N)=O)C2CC2)cc2cc(C3CC3)nn12 [Example 1060] | < 200 | < 500
COc1cc(C(=O)NC[C@](O)(c2cc3c(c(-c4ccc(F)cc4)n2)OC[C@@]3(CF)C(N)=O)C2CC2)cc2cn(C(F)F)nc12 [Example 1061] | > 200 | > 500
COc1cc(C(=O)NC[C@](O)(c2cc3c(c(-c4ccc(F)cc4)n2)OC[C@]3(CF)C(N)=O)C2CC2)cc2cn(C(F)F)nc12 [Example 1062] | < 200 | < 500
